From US20250171413A1, “ANTIVIRAL INDOLINYL COMPOUNDS AND USES THEREOF” (Gilead Sciences, Inc., priority 2023, published 2025)
Read-outs that look alike come from different tables or passages of the source.

Test system: HSV-2 virus (MS strain)
Experiment: HSV-2 Cellomics Assay (immunofluorescence of HSV protein gD)
Format: cell-based
Experimental: Compounds were tested for their ability to inhibit HSV-2 replication by monitoring the expression of the HSV protein gD using a high-throughput immunofluorescence-based assay. 10-dose, 3-fold serial dilutions of compounds were prepared at starting concentrations of 0.2 or 2 mM in 100% DMSO. 250 nl of compounds were spotted in quadruplicates onto black collagen-coated 384-well microplates with clear bottom (Greiner cat #781956) using a Labcyte ECHO acoustic dispenser. The final starting concentration in the assay was either […]. DMSO (no compound) and pritelivir were included on each microplate as negative and positive controls, respectively.
ARPE-19 cells (ATCC cat #CRL-2302) were maintained DMEM/F-12 Glutamax medium (Thermo Fisher Scientific cat #10565018) supplemented with 10% FBS (Corning cat #35-011-CV) and 1% Penicillin-Streptomycin (cat #30-002-CI). Prior to confluence, cells were transferred to a centrifuge tube and spun for 5 minutes at 1000 rpm. Cells were resuspended in assay medium (DMEM/F-12 Glutamax, 2% FBS, 1% Penicillin-Streptomycin) and counted. Cell density was adjusted to 150,000 cells/ml and infected with HSV-2 virus (MS strain, ATCC cat #VR-540) at a MOI of 0.06 in a 50 ml conical tube for 1 hour under constant rocking. Cells were then spun for 5 minutes at 1000 rpm and the media replaced with assay medium containing either 2% FBS or 10% human serum (EMD Millipore cat #S1-100ML). 50 μl of the infection suspension were added into microplate wells that were pre-spotted with compounds (7,500 cells per well). Plates were incubated for 16 hours at 37° C.
Cell culture medium was aspirated using a Biomek Fx and 50 μl of a paraformaldehyde solution (Electron Microscopy Sciences cat #15712-5) diluted to 4% in DPBS (Corning cat #21-031-CM) were added per well. After a 30-minute incubation at room temperature, plates were washed 4 times with 100 μl/well of PBS using a Biotek plate washer. A 1:500 solution of primary antibody (anti-HSV gD, Virusys cat #P1103) was prepared in permeabilization buffer (Invitrogen cat #00-8333-56) and 50 μl were added into wells. After a 1-hour incubation at room temperature, 50 μl of a 1:1000 solution of secondary antibody (Alexa Fluor 488 goat anti-mouse, Thermo Fisher Scientific cat #A11001) and DAPI (Thermo Fisher Scientific cat #62248) in permeabilization buffer were added into wells and plates were incubated in the dark at room temperature for 1 hour. Plates were washed 4 times again and 50 μl of DPBS were added to all wells prior to sealing the plates with a black adhesive seal. Fluorescence was measured on a Cellomics plate reader.
Data analysis was carried out using the Thermo Scientific HCS Studio software. Briefly, cells were identified using the DAPI nuclear stain and thresholds were set to filter cells out based on shape and size. A second threshold based on green fluorescence intensity (detection of HSV-2 gD) was set to identify HSV-2 infected cells. Data was reported as the average fluorescence intensity of HSV-2 infected cells. EC50 values were defined as the compound concentration that caused a 50% decrease in the average fluorescence intensity and was calculated using a sigmoidal dose-response model to generate curve fits.

[1] = Human alphaherpesvirus 2, HSV-2 (MS strain, MOI 0.06) infected ARPE-19 cells, assay medium containing 2% FBS, 16 hours, read-out: EC50-HSV2-FBS
[2] = Human alphaherpesvirus 2, HSV-2 (MS strain, MOI 0.06) infected ARPE-19 cells, assay medium containing 10% human serum, 16 hours, read-out: EC50-HSV2-10% Human Serum

## CC[S@](=N)(=O)c1cc2c(cc1F)CCN2C(=O)[C@H]1Cc2cc(-c3ccccn3)ccc2O1 [Example 5, (S)-ethyl(5-fluoro-1-((R)-5-(pyridin-2-yl)-2,3-dihydrobenzofuran-2-carbonyl)indolin-6-yl)(imino)-λ^6-sulfanone]
[1]
  EC50: 178 nM
[2]
  EC50: 474 nM

## CC[S@@](=N)(=O)c1cc2c(cc1F)CCN2C(=O)[C@@H]1Cc2ccc(-c3ccccn3)cc2C1 [Example 2, (R)-ethyl(5-fluoro-1-((R)-5-(pyridin-2-yl)-2,3-dihydro-1H-indene-2-carbonyl)indolin-6-yl)(imino)-λ^6-sulfanone]
[1]
  EC50: 18 nM
[2]
  EC50: 71 nM

## Cc1nc(N(C)C(=O)Cc2ccc(-c3ccccn3)cc2)sc1S(N)(=O)=O [pritelivir, reference compound]
Human alphaherpesvirus 2, ARPE-19, read-out: EC50 in HSV-2 Cellomics assay
  EC50: 150 nM

## COCC[S@](=N)(=O)c1cc2c(cc1F)CCN2C(=O)[C@H]1Cc2cc(-c3ccccn3)ccc2O1 [Example 18, (S)-(5-fluoro-1-((R)-5-(pyridin-2-yl)-2,3-dihydrobenzofuran-2-carbonyl)indolin-6-yl)(imino)(2-methoxyethyl)-λ^6-sulfanone]
[1]
  EC50: 92 nM
[2]
  EC50: 208 nM

## COCC[S@@](=N)(=O)c1cc2c(cc1F)CCN2C(=O)[C@H]1Cc2cc(-c3ccccn3)ccc2O1 [Example 17, (R)-(5-fluoro-1-((R)-5-(pyridin-2-yl)-2,3-dihydrobenzofuran-2-carbonyl)indolin-6-yl)(imino)(2-methoxyethyl)-λ^6-sulfanone]
[1]
  EC50: 39 nM
[2]
  EC50: 59 nM

## COCCS(=N)(=O)c1cc2c(cc1F)CCN2C(=O)[C@@H]1Cc2ccc(-c3ccccn3)cc2C1 (stereo partly drawn) [Example 13, (5-fluoro-1-((R)-5-(pyridin-2-yl)-2,3-dihydro-1H-indene-2-carbonyl)indolin-6-yl)(imino)(2-methoxyethyl)-16-sulfanone]
[1]
  EC50: 31 nM
[2]
  EC50: 55 nM

## CC[S@](=N)(=O)c1cc2c(cc1F)C[C@@H](C)N2C(=O)[C@@H]1Cc2ccc(-c3ccccn3)cc2C1 [Example 27, (S)-ethyl((R)-5-fluoro-2-methyl-1-((R)-5-(pyridin-2-yl)-2,3-dihydro-1H-indene-2-carbonyl)indolin-6-yl)(imino)-λ^6-sulfanone]
[1]
  EC50: 55 nM
[2]
  EC50: 113 nM

## CCC[S@](=N)(=O)c1cc2c(cc1F)CCN2C(=O)[C@@H]1Cc2ccc(-c3ccccn3)cc2C1 [Example 9, (S)-(5-fluoro-1-((R)-5-(pyridin-2-yl)-2,3-dihydro-1H-indene-2-carbonyl)indolin-6-yl)(imino)(propyl)-λ^6-sulfanone]
[1]
  EC50: 52 nM
[2]
  EC50: 218 nM

## CCNS(=O)(=O)c1cc2c(cc1F)CCN2C(=O)[C@H]1Cc2cc(-c3ccccn3)ccc2O1 [Example 31, (R)—N-ethyl-5-fluoro-1-(5-(pyridin-2-yl)-2,3-dihydrobenzofuran-2-carbonyl)indoline-6-sulfonamide]
[1]
  EC50: 10 nM
[2]
  EC50: 570 nM

## CCS(=N)(=O)c1cc2c(cc1F)CC(C)N2C(=O)[C@@H]1Cc2ccc(-c3ccccn3)cc2C1 (stereo partly drawn) [Example 25, ethyl(5-fluoro-2-methyl-1-((R)-5-(pyridin-2-yl)-2,3-dihydro-1H-indene-2-carbonyl)indolin-6-yl)(imino)-λ^6-sulfanone]
[1]
  EC50: 72 nM
[2]
  EC50: 203 nM

## CCC[S@@](=N)(=O)c1cc2c(cc1F)CCN2C(=O)[C@@H]1Cc2ccc(-c3ccccn3)cc2C1 [Example 8, (R)-(5-fluoro-1-((R)-5-(pyridin-2-yl)-2,3-dihydro-1H-indene-2-carbonyl)indolin-6-yl)(imino)(propyl)-λ^6-sulfanone]
[1]
  EC50: 16 nM
[2]
  EC50: 77 nM

## N=S(=O)(c1cc2c(cc1F)CCN2C(=O)[C@@H]1Cc2ccc(-c3ccccn3)cc2C1)C1CC1 (stereo partly drawn) [Example 19, cyclopropyl(5-fluoro-1-((R)-5-(pyridin-2-yl)-2,3-dihydro-1H-indene-2-carbonyl)indolin-6-yl)(imino)-λ^6-sulfanone]
[1]
  EC50: 56 nM
[2]
  EC50: 453 nM

## COCC[S@@](=N)(=O)c1cc2c(cc1F)CCN2C(=O)[C@@H]1Cc2ccc(-c3ccccn3)cc2C1 [Example 14, (R)-(5-fluoro-1-((R)-5-(pyridin-2-yl)-2,3-dihydro-1H-indene-2-carbonyl)indolin-6-yl)(imino)(2-methoxyethyl)-λ^6-sulfanone]
[1]
  EC50: 25 nM
[2]
  EC50: 54 nM

## CC[S@@](=N)(=O)c1cc2c(cc1F)C[C@@H](C)N2C(=O)[C@@H]1Cc2ccc(-c3ccccn3)cc2C1 [Example 26, (R)-ethyl((R)-5-fluoro-2-methyl-1-((R)-5-(pyridin-2-yl)-2,3-dihydro-1H-indene-2-carbonyl)indolin-6-yl)(imino)-λ^6-sulfanone]
[1]
  EC50: 30 nM
[2]
  EC50: 92 nM

## CN=S(C)(=O)c1cc2c(cc1F)CCN2C(=O)[C@@H]1Cc2ccc(-c3ccccn3)cc2C1 (stereo partly drawn) [Example 22, (5-fluoro-1-((R)-5-(pyridin-2-yl)-2,3-dihydro-1H-indene-2-carbonyl)indolin-6-yl)(methyl)(methylimino)-l6-sulfanone]
[1]
  EC50: 211 nM
[2]
  EC50: 737 nM

## CC[S@@](=N)(=O)c1cc2c(cc1F)CCN2C(=O)[C@H]1Cc2cc(-c3ccccn3)ccc2O1 [Example 6, (R)-ethyl(5-fluoro-1-((R)-5-(pyridin-2-yl)-2,3-dihydrobenzofuran-2-carbonyl)indolin-6-yl)(imino)-λ^6-sulfanone]
[1]
  EC50: 40 nM
[2]
  EC50: 81 nM

## CCNS(=O)(=O)c1cc2c(cc1F)CCN2C(=O)[C@@H]1Cc2ccc(-c3ccccn3)cc2C1 [Example 30, (R)—N-ethyl-5-fluoro-1-(5-(pyridin-2-yl)-2,3-dihydro-1H-indene-2-carbonyl)indoline-6-sulfonamide]
[1]
  EC50: 5 nM
[2]
  EC50: 304 nM

## N=[S@](=O)(c1cc2c(cc1F)CCN2C(=O)[C@@H]1Cc2ccc(-c3ccccn3)cc2C1)C1CC1 [Example 20, (R)-cyclopropyl(5-fluoro-1-((R)-5-(pyridin-2-yl)-2,3-dihydro-1H-indene-2-carbonyl)indolin-6-yl)(imino)-λ^6-sulfanone]
[1]
  EC50: 33 nM
[2]
  EC50: 248 nM

## CC[S@](=N)(=O)c1cc2c(cc1F)CCN2C(=O)[C@@H]1Cc2ccc(-c3ccccn3)cc2C1 [Example 3, (S)-ethyl(5-fluoro-1-((R)-5-(pyridin-2-yl)-2,3-dihydro-1H-indene-2-carbonyl)indolin-6-yl)(imino)-λ^6-sulfanone]
[1]
  EC50: 73 nM
[2]
  EC50: 258 nM

## CCC[S@](=N)(=O)c1cc2c(cc1F)CCN2C(=O)[C@H]1Cc2cc(-c3ccccn3)ccc2O1 [Example 11, (S)-(5-fluoro-1-((R)-5-(pyridin-2-yl)-2,3-dihydrobenzofuran-2-carbonyl)indolin-6-yl)(imino)(propyl)-λ^6-sulfanone]
[1]
  EC50: 124 nM
[2]
  EC50: 406 nM

## N=[S@@](=O)(c1cc2c(cc1F)CCN2C(=O)[C@@H]1Cc2ccc(-c3ccccn3)cc2C1)C1CC1 [Example 21, (S)-cyclopropyl(5-fluoro-1-((R)-5-(pyridin-2-yl)-2,3-dihydro-1H-indene-2-carbonyl)indolin-6-yl)(imino)-λ^6-sulfanone]
[1]
  EC50: 98 nM
[2]
  EC50: 949 nM

## CCC[S@@](=N)(=O)c1cc2c(cc1F)CCN2C(=O)[C@H]1Cc2cc(-c3ccccn3)ccc2O1 [Example 12, (R)-(5-fluoro-1-((R)-5-(pyridin-2-yl)-2,3-dihydrobenzofuran-2-carbonyl)indolin-6-yl)(imino)(propyl)-λ^6-sulfanone]
[1]
  EC50: 35 nM
[2]
  EC50: 98 nM

## CCCC(=O)NS(=O)(=O)c1cc2c(cc1F)C[C@@H](C)N2C(=O)[C@@H]1Cc2ccc(-c3ccccn3)cc2C1 [Example 32, N—(((R)-5-fluoro-2-methyl-1-((R)-5-(pyridin-2-yl)-2,3-dihydro-1H-indene-2-carbonyl)indolin-6-yl)sulfonyl)butyramide]
[1]
  EC50: 231 nM
[2]
  EC50: 2380 nM
